From PubChem BioAssay AID1963837 (Molecular Pharmacology Branch, DTP, NCI, 2024)

Test system: 843126-344-R-J1-PDC complex spheroid viability
Test: Anticancer human tumor 843126-344-R-J1-PDC patient-derived melanoma cell line growth inhibition [POLQ]
Settings: for IC50: curve of first compound; for viability, T/C: stronger effect = lower value
Method in brief: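 Patient-derived tumour cells were co-cultured with HUVEC and mesenchymal stem cells as multicellular spheroids at 37 °C. They were treated with POLQ inhibitors (novobiocin, ART-558, RP6685) alone or combined with other agents. Top concentrations were at or near clinical Cmax (otherwise 10 microM; SN-38 at 1 microM), decreasing in half-log steps.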

[1] = second compound 0.0316 µM, first compound 0.0316 µM
[2] = second compound 0.0316 µM, first compound 0.1 µM
[3] = second compound 0.0316 µM, first compound 0.316 µM
[4] = second compound 0.0316 µM, first compound 1 µM
[5] = second compound 0.0316 µM, first compound 3.16 µM
[6] = second compound 0.0316 µM, first compound 10 µM
[7] = second compound 0.1 µM, first compound 0.0316 µM
[8] = second compound 0.1 µM, first compound 0.1 µM
[9] = second compound 0.1 µM, first compound 0.316 µM
[10] = second compound 0.1 µM, first compound 1 µM
[11] = second compound 0.1 µM, first compound 3.16 µM
[12] = second compound 0.1 µM, first compound 10 µM
[13] = second compound 0.316 µM, first compound 0.0316 µM
[14] = second compound 0.316 µM, first compound 0.1 µM
[15] = second compound 0.316 µM, first compound 0.316 µM
[16] = second compound 0.316 µM, first compound 1 µM
[17] = second compound 0.316 µM, first compound 3.16 µM
[18] = second compound 0.316 µM, first compound 10 µM
[19] = second compound 1 µM, first compound 0.0316 µM
[20] = second compound 1 µM, first compound 0.1 µM
[21] = second compound 1 µM, first compound 0.316 µM
[22] = second compound 1 µM, first compound 1 µM
[23] = second compound 1 µM, first compound 3.16 µM
[24] = second compound 1 µM, first compound 10 µM
[25] = second compound 3.16 µM, first compound 0.0316 µM
[26] = second compound 3.16 µM, first compound 0.1 µM
[27] = second compound 3.16 µM, first compound 0.316 µM
[28] = second compound 3.16 µM, first compound 1 µM
[29] = second compound 3.16 µM, first compound 3.16 µM
[30] = second compound 3.16 µM, first compound 10 µM
[31] = second compound 10 µM, first compound 0.0316 µM
[32] = second compound 10 µM, first compound 0.1 µM
[33] = second compound 10 µM, first compound 0.316 µM
[34] = second compound 10 µM, first compound 1 µM
[35] = second compound 10 µM, first compound 3.16 µM
[36] = second compound 10 µM, first compound 10 µM
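Throughout, for viability, T/C: spheroids exposed to drugs for seven days before readout.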

COc1ccc([C@@H](O)c2cc(-c3ncnc4cc(N5CCOCC5)ccc34)c(F)cc2Cl)nn1 + COC1C(OC(N)=O)C(O)C(Oc2ccc3c(O)c(NC(=O)c4ccc(O)c(CC=C(C)C)c4)c(=O)oc3c2C)OC1(C)C gave an IC50 (second compound 0.0316 µM) greater than 10 µM, an IC50 (second compound 0.1 µM) greater than 10 µM and an IC50 (second compound 0.316 µM) of 7.08 µM. For the same molecule, the IC50 (second compound 1 µM) was greater than 10 µM, the IC50 (second compound 3.16 µM) was greater than 10 µM and the IC50 (second compound 10 µM) was 9.31 µM. For the same molecule, the viability, T/C [1] was 116%, the viability, T/C [2] was 82.3% and the viability, T/C [3] was 105%. It also gave a viability, T/C [4] of 84.7%, a viability, T/C [5] of 85.7% and a viability, T/C [6] of 53.4%. It also gave a viability, T/C [7] of 85.8%, a viability, T/C [8] of 85.7% and a viability, T/C [9] of 116%. It also gave a viability, T/C [10] of 79.5%, a viability, T/C [11] of 81.6% and a viability, T/C [12] of 54.1%. It also gave a viability, T/C [13] of 93.4%, a viability, T/C [14] of 98.2% and a viability, T/C [15] of 92.8%. For the same molecule, the viability, T/C [16] was 89%, the viability, T/C [17] was 63% and the viability, T/C [18] was 44.4%. For the same molecule, the viability, T/C [19] was 95.8%, the viability, T/C [20] was 80.1% and the viability, T/C [21] was 92.8%. For the same molecule, the viability, T/C [22] was 91%, the viability, T/C [23] was 85.6% and the viability, T/C [24] was 54.9%. It also gave a viability, T/C [25] of 87.8%, a viability, T/C [26] of 102% and a viability, T/C [27] of 90.3%. It also gave a viability, T/C [28] of 73.8%, a viability, T/C [29] of 85% and a viability, T/C [30] of 49.9%. The viability, T/C [31] was 87%, the viability, T/C [32] was 76% and the viability, T/C [33] was 109%. It also gave a viability, T/C [34] of 76%, a viability, T/C [35] of 69.6% and a viability, T/C [36] of 48.5%.
Molecule CC(C)n1c(=O)n(C)c2cnc3cc(F)c(-c4ccc(OCCCN5CCCCC5)nc4)cc3c21 + Nc1ccc(C#CCN(C(=O)Cc2ncc(C(F)(F)F)cc2C(F)(F)F)c2ccc(F)cc2)nn1 has an IC50 (second compound 0.0316 µM) greater than 10 µM, an IC50 (second compound 0.1 µM) greater than 10 µM and an IC50 (second compound 0.316 µM) greater than 10 µM. The IC50 (second compound 1 µM) was greater than 10 µM, the IC50 (second compound 3.16 µM) was greater than 10 µM and the IC50 (second compound 10 µM) was greater than 10 µM. The viability, T/C [1] was 91.9%, the viability, T/C [2] was 74% and the viability, T/C [3] was 86.2%. For the same molecule, the viability, T/C [4] was 92.6%, the viability, T/C [5] was 81.5% and the viability, T/C [6] was 77.8%. It also gave a viability, T/C [7] of 93.8%, a viability, T/C [8] of 92.4% and a viability, T/C [9] of 77.7%. The viability, T/C [10] was 84.6%, the viability, T/C [11] was 90.7% and the viability, T/C [12] was 70.6%. It also gave a viability, T/C [13] of 80.8%, a viability, T/C [14] of 95.4% and a viability, T/C [15] of 94.5%. It also gave a viability, T/C [16] of 85.7%, a viability, T/C [17] of 89.2% and a viability, T/C [18] of 71.6%. It also gave a viability, T/C [19] of 89.3%, a viability, T/C [20] of 85.7% and a viability, T/C [21] of 90.9%. For the same molecule, the viability, T/C [22] was 93.5%, the viability, T/C [23] was 81% and the viability, T/C [24] was 64.1%. The viability, T/C [25] was 76.5%, the viability, T/C [26] was 84% and the viability, T/C [27] was 88.9%. The viability, T/C [28] was 82.8%, the viability, T/C [29] was 81.8% and the viability, T/C [30] was 81%. The viability, T/C [31] was 85.3%, the viability, T/C [32] was 73.2% and the viability, T/C [33] was 86.8%. The viability, T/C [34] was 91.4%, the viability, T/C [35] was 78.3% and the viability, T/C [36] was 67.8%.
Work on COc1cccc2c1C(=O)c1c(O)c3c(c(O)c1C2=O)CC(O)(C(=O)CO)CC3OC1CC(N)C(O)C(C)O1 (stereo unspecified) + COC1C(OC(N)=O)C(O)C(Oc2ccc3c(O)c(NC(=O)c4ccc(O)c(CC=C(C)C)c4)c(=O)oc3c2C)OC1(C)C yielded an IC50 (second compound 0.0316 µM) of 0.332 µM, an IC50 (second compound 0.1 µM) of 0.32 µM and an IC50 (second compound 0.316 µM) of 0.295 µM. It also gave an IC50 (second compound 1 µM) of 0.328 µM, an IC50 (second compound 3.16 µM) of 0.404 µM and an IC50 (second compound 10 µM) of 0.303 µM. For the same molecule, the viability, T/C [1] was 80%, the viability, T/C [2] was 81.3% and the viability, T/C [3] was 50.5%. It also gave a viability, T/C [4] of 14.6%, a viability, T/C [5] of 4.71% and a viability, T/C [6] of 3.86%. The viability, T/C [7] was 84%, the viability, T/C [8] was 85% and the viability, T/C [9] was 49.2%. For the same molecule, the viability, T/C [10] was 13.5%, the viability, T/C [11] was 3.97% and the viability, T/C [12] was 3.88%. The viability, T/C [13] was 103%, the viability, T/C [14] was 71.8% and the viability, T/C [15] was 58%. The viability, T/C [16] was 14.1%, the viability, T/C [17] was 4.21% and the viability, T/C [18] was 4.82%. It also gave a viability, T/C [19] of 98.3%, a viability, T/C [20] of 77.2% and a viability, T/C [21] of 56.2%. For the same molecule, the viability, T/C [22] was 13%, the viability, T/C [23] was 4.55% and the viability, T/C [24] was 3.9%. The viability, T/C [25] was 87.6%, the viability, T/C [26] was 77% and the viability, T/C [27] was 60.2%. It also gave a viability, T/C [28] of 16%, a viability, T/C [29] of 5.73% and a viability, T/C [30] of 4.31%. The viability, T/C [31] was 88.6%, the viability, T/C [32] was 77.6% and the viability, T/C [33] was 49.9%. It also gave a viability, T/C [34] of 15%, a viability, T/C [35] of 4.64% and a viability, T/C [36] of 3.44%.
